# Results from ChEMBL document CHEMBL1833788, “Selective water-soluble gelatinase inhibitor prodrugs” (J Med Chem, 2011).
# Experiments:
# Mus musculus [1] = experiment: Distribution half life in C57B1/6 mouse plasma assessed as N-(4-(4-(thiiran-2-ylmethylsulfonyl)phenoxy)phenyl)acetamide level at […], iv administered as single bolus dose; format: ADME, organism-based; conditions: in vivo
# Mus musculus [2] = experiment: Prodrug conversion in C57B1/6 mouse assessed as N-(4-(4-(thiiran-2-ylmethylsulfonyl)phenoxy)phenyl)acetamide level in plasma at […], iv administered as single bolus dose after 4 to 5 mins by reversed-phase HPLC/UV analysis; format: ADME, organism-based; conditions: in vivo, read-out: Drug metabolism
# Mus musculus [3] = experiment: Prodrug conversion in C57B1/6 mouse plasma assessed as parent compound level at […], iv administered as single bolus dose after 22 mins by reversed-phase LC/MS analysis; format: ADME, organism-based; conditions: in vivo, read-out: Drug metabolism
# Mus musculus [4] = experiment: Prodrug conversion in C57B1/6 mouse plasma assessed as parent compound level at […], iv administered as single bolus dose after 120 to 123 mins by reversed-phase LC/MS analysis; format: ADME, organism-based; conditions: in vivo, read-out: Drug metabolism
# Mus musculus [5] = experiment: Clearance in C57B1/6 mouse plasma assessed as parent compound level at […], iv administered as single bolus dose; format: ADME, organism-based; conditions: in vivo
# Mus musculus [6] = experiment: Terminal half life in C57B1/6 mouse plasma assessed as 4-[4-((Thiiran-2-yl)methylsulphonyl)phenoxy]benzamine level at […], iv administered as single dose; format: ADME, organism-based; conditions: in vivo
# Mus musculus [7] = experiment: Prodrug conversion in C57B1/6 mouse assessed as N-(4-(4-((Thiiran-2-ylmethyl)sulfonyl)phenoxy)phenyl) hydroxylamine level in urine at […], iv administered as single dose by reversed-phase LC/MS analysis; format: ADME, organism-based; conditions: in vivo
# Mus musculus [8] = experiment: Prodrug conversion in C57B1/6 mouse plasma assessed as parent compound level at […], iv administered as single bolus dose after 2 to 3 mins by reversed-phase LC/MS analysis; format: ADME, organism-based; conditions: in vivo, read-out: Drug metabolism
# Mus musculus [9] = experiment: Prodrug conversion in C57B1/6 mouse assessed as N-(4-(4-(thiiran-2-ylmethylsulfonyl)phenoxy)phenyl)acetamide level in plasma at […], iv administered as single bolus dose after 7 to 8 mins by reversed-phase LC/MS analysis; conditions: in vivo
# Mus musculus [10] = experiment: AUC (0 to last) in C57B1/6 mouse plasma assessed as parent compound level at […], iv administered as single bolus dose; format: ADME, organism-based; conditions: in vivo
# Mus musculus [11] = experiment: Prodrug conversion in C57B1/6 mouse plasma assessed as parent compound level at […], iv administered as single bolus dose after 42 mins by reversed-phase LC/MS analysis; format: ADME, organism-based; conditions: in vivo, 0.7 h
structure (smiles),measurement,setting,value
Cl.N=C(N)NCCC[C@H](N)C(=O)Nc1ccc(Oc2ccc(S(=O)(=O)CC3CS3)cc2)cc1 (stereo partly specified),alphat1/2,Mus musculus [1],12 min
same,concentration,Mus musculus [2],231 nM
same,concentration,Mus musculus [3],138 nM
same,concentration,Mus musculus [4],17.1 nM
same,CL,Mus musculus [5],58.2 mL/min/kg
same,beta t1/2,Mus musculus [6],1.15 h
same,Drug metabolism,Mus musculus [7],Not Active
same,concentration,Mus musculus [8],35100 nM
same,Drug metabolism,Mus musculus [9],0.176 µM
same,AUClast,Mus musculus [10],360 µM·min
same,Drug metabolism,Mus musculus [11],0.0872 µM
